A word on the IC50: it is the concentration at which inhibition is half-maximal.

A value given as a limit tells only on which side of the number the result lay.

In data set [1] the target is T1, HER2 INS YVMA (Homo sapiens, UniProt P04626, INS775YVMA).
T1 construct: purchased DPF
The experiment in a line: Lance Kinase Activity Assay, HER2 INS YVMA (Her2 Exon 20 INSYVMA Lance). The data set is classed as biochemical. The conditions noted are these: biochemical Lance assay. The procedure, abridged:
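IC50 was fitted to sigmoidal curves of TR-FRET signal (665 and 615 nm emission after 340 nm excitation) from an Eu anti-phospho antibody binding the phosphorylated ULight peptide. The ATP-started reaction ran 1 h at RT and was then quenched with 10 mM EDTA plus antibody for a further 1 h. Compounds were tested as 8-point, 3-fold dilutions.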

For data set [2], the target named is Her2 Exon 20 INSYVMA Ba/F3 (Homo sapiens, UniProt P04626, DUP772-775, cells depend on it). The experiment in a line: Her2 Exon 20 INSYVMA Ba/F3 CellTiter-Glo. The data set is classed as cell-based. The settings on record: CellTiter-Glo, 72 h, read-out: Her2 Exon 20 INSYVMA Ba/F3 CTG IC50. The method, boiled down: (§1)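 Ba/F3 cells were seeded, left 24 h at 37 °C/5% CO2, then exposed to compound dilutions in DMSO for 72 h. Viability was read as ATP luminescence (CellTiter-Glo) and IC50 fitted from dose–response curves; DMSO and 10 μM staurosporine defined the controls, and plates needed Z′ ≥0.5.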

In data set [3] the target is EGFR Exon 20 INSNPH Ba/F3 (Homo sapiens, UniProt P00533, DUP771-773, cells depend on it). The data set is described as follows: EGFR Exon 20 INSNPH Ba/F3 CellTiter-Glo. The data set is classed as cell-based. The settings on record: CellTiter-Glo, 72 h, read-out: EGFR Exon 20 INSNPH Ba/F3 CTG IC50. The method, boiled down:
as §1

Data set [4] deals with EGFR T790ML858R (Homo sapiens, UniProt P00533, L858R/T790M). The experiment in a line: EGFR T790ML858R Lance assay. The data set is classed as biochemical. The procedure:
(§2) Inhibition is indicated as […] [nM] (“−”=not measured). Compounds having an activity designated as “A” provided an IC50≤100 nM; compounds having an activity designated as “B” provided an 100 nM<IC50≤500 nM; compounds having an activity designated as “C” provided an 500 nM<IC50≤1000 nM; compounds having an activity designated as “D” provided an 1000 nM<IC50≤100000 nM; and compounds having an activity designated as “E” provided an IC50>10000 nM.

The target of data set [5] is EGFR wt (Homo sapiens, UniProt P00533). The data set is described as follows: EGFR wt Lance assay. The data set is classed as biochemical. The protocol:
as §2

Data set [6] deals with H1975. The data set is described as follows: H1975 CellTiter-Glo. In kind it is cell-based. The conditions noted are these: Homo sapiens, NCI-H1975; 72 h compound incubation; read-out: H1975 CTG IC50. The method, boiled down: (§3)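 72 h compound exposure after 24 h attachment, 37° C./5% CO2; CellTiter-Glo ATP luminescence read-out; IC50 by dose-response fit; DMSO vehicle and 10 μM Staurosporine as controls; plates accepted only if Z′ ≥0.5.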
Background: In ATP-based viability assays light output follows the ATP content of the culture.

Data set [7] concerns H1781. The experiment in a line: H1781 CellTiter-Glo. In kind it is cell-based. The conditions noted are these: NCI-H1781; 72 h compound incubation; read-out: H1781 CTG IC50. The procedure, abridged: as §3
In data set [8] the test system is A431. The data set is described as follows: A431 CellTiter-Glo. In kind it is cell-based. The conditions noted are these: Homo sapiens, A-431; 72 h compound incubation; read-out: A431 CTG IC50. The method, boiled down: as §3
Data set [9] is described as follows: Metabolic stability in mouse liver microsomes without cofactor NADPH. The data set is classed as in vitro ADME. The settings on record: 3 μM test compound, mouse liver microsomes, without NADPH, 50 min, 37° C., LC-MS/MS. The procedure, abridged: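 Cofactor-free incubation: no NADPH added to mouse liver microsomes, with compound at 3 μM and 37° C. Remaining parent was quantified by LC-MS/MS at time points up to 50 minutes to track depletion.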
For orientation: Microsomes from liver hold many membrane-bound enzymes, among them those of drug oxidation.

EGFR T790ML858R, sequence (P00533 25-1210 T790M/L858R): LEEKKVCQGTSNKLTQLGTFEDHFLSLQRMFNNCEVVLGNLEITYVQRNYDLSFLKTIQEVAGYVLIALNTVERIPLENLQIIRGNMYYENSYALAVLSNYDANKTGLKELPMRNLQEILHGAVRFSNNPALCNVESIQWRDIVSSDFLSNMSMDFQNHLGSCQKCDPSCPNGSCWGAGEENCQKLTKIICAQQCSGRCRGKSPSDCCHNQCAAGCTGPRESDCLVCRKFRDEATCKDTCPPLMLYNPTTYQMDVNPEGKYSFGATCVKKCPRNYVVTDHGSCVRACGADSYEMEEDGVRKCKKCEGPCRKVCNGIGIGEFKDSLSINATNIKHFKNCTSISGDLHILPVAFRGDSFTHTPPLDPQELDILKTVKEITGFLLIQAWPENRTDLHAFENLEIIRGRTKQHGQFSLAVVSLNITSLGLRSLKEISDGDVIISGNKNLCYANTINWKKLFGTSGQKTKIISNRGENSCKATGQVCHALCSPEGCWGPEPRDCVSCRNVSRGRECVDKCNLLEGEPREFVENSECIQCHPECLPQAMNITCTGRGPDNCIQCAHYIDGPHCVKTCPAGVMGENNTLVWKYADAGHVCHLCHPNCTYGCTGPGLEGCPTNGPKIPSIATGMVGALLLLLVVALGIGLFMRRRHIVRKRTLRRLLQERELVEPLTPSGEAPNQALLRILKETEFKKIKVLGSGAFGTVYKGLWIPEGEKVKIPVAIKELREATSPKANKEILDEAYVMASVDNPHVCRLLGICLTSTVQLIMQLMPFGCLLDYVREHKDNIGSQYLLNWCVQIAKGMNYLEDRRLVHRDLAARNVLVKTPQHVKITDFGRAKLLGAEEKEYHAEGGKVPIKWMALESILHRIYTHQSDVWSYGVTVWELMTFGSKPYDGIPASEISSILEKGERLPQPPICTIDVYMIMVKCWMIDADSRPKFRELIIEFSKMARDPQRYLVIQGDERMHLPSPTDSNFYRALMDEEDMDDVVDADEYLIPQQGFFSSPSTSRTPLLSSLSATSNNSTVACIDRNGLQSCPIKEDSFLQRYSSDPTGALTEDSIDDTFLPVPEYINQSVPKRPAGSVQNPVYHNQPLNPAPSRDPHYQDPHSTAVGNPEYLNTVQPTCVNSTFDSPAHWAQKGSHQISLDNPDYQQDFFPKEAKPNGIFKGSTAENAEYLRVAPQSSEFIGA
T1 sequence (P04626 with tags, fused parts or gaps INS775YVMA): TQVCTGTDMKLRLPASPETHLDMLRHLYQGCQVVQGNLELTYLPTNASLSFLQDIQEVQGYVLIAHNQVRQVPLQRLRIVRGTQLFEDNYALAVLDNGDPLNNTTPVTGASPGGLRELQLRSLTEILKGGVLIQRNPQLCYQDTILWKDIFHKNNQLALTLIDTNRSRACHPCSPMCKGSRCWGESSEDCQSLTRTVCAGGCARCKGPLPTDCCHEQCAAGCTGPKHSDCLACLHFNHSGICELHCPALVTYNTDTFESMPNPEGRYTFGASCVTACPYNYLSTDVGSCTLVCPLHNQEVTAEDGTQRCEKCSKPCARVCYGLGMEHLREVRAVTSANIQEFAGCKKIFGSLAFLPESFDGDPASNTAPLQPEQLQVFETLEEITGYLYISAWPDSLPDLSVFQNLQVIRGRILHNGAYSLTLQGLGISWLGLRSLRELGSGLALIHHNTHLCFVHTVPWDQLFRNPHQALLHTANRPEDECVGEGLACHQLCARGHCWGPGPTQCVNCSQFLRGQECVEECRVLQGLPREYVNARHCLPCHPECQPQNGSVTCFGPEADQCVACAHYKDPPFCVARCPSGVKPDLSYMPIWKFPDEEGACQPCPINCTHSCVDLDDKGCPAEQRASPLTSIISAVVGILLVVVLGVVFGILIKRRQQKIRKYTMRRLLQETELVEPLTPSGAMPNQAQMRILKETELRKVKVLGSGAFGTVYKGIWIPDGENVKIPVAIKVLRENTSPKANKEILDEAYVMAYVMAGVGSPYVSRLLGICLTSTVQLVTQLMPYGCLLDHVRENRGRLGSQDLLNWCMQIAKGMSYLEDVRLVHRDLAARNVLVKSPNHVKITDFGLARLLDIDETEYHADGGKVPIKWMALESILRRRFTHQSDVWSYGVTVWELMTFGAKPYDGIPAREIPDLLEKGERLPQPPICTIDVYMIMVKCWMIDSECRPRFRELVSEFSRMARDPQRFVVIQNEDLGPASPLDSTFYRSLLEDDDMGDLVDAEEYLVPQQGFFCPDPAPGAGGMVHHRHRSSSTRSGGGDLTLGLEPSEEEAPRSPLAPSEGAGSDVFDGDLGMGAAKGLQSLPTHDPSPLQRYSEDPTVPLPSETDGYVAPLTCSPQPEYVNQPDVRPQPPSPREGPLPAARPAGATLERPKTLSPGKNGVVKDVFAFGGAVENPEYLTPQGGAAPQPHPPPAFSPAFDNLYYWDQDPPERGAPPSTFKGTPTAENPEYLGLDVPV
EGFR wt, sequence (P00533 25-1210): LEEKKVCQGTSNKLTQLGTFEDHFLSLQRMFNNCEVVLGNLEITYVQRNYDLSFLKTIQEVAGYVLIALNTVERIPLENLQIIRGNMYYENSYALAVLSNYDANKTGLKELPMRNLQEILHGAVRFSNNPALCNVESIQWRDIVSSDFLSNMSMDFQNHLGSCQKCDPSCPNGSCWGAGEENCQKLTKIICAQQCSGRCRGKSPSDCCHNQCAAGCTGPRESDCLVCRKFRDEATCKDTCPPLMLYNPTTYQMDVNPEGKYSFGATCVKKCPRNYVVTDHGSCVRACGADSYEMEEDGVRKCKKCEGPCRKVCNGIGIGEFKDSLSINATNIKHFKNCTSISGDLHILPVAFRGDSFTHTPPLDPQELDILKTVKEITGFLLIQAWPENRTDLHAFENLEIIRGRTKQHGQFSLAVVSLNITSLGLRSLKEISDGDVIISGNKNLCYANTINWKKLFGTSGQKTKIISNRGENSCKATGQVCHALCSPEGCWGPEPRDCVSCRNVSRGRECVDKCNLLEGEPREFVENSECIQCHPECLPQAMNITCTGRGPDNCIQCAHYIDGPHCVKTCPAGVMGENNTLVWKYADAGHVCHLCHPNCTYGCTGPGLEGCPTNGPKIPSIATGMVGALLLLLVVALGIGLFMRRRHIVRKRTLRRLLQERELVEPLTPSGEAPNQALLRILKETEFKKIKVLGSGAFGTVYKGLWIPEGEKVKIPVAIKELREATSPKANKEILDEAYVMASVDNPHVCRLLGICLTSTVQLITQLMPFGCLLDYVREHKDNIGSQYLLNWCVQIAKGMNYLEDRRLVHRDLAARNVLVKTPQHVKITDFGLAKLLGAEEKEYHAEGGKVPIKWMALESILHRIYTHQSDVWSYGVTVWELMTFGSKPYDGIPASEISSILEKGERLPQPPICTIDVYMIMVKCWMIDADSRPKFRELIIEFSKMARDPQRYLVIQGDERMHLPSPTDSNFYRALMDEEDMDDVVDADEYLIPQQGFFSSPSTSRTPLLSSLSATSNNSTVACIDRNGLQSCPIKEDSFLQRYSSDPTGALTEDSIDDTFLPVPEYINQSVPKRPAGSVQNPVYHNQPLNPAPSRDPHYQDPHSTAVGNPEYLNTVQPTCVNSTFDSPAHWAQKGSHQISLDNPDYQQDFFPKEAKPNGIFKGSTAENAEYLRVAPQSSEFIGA
EGFR Exon 20 INSNPH Ba/F3, sequence (P00533 with tags, fused parts or gaps DUP771-773): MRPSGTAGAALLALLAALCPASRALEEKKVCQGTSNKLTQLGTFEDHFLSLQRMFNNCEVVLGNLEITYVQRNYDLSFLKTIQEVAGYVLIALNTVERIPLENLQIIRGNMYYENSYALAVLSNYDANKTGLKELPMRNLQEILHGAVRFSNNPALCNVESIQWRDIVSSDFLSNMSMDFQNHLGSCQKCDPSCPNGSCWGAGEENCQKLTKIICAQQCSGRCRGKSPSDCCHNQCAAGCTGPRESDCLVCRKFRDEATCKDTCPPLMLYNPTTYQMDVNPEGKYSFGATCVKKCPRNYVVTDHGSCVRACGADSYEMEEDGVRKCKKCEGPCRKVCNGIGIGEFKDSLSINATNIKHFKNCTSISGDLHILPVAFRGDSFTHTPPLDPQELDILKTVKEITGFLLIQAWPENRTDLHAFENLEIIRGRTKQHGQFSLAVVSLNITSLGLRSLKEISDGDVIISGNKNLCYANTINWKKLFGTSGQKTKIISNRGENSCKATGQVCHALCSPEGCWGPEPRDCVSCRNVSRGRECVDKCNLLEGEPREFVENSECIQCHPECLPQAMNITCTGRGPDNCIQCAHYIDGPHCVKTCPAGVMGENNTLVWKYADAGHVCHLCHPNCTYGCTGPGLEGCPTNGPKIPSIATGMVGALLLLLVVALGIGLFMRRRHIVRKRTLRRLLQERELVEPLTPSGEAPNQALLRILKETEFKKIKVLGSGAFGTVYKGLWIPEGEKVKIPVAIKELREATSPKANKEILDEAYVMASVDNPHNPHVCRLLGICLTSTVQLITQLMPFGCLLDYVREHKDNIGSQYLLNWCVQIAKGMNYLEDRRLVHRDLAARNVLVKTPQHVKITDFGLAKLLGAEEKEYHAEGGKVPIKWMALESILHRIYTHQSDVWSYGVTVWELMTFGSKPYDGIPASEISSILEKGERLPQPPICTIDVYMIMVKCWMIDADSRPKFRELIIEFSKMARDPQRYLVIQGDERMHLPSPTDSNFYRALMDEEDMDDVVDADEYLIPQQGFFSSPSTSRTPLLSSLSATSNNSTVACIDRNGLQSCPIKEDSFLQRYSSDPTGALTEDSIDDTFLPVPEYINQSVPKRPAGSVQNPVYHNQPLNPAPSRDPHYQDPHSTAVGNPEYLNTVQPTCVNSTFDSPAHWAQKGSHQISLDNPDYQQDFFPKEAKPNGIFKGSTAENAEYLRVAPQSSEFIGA

Take `C=CC(=O)Nc1cc(-c2c(-c3ccc(N4CCN(S(=O)(=O)CC)CC4)cc3)[nH]c3nccc(Cl)c23)ccc1C` [Example 15, N-(5-(4-chloro-2-(4-(4-(ethylsulfonyl)piperazin-1-yl)phenyl)-1H-pyrrolo[2,3-b]pyridin-3-yl)-2-methylphenyl)acrylamide]: the IC50 in data set [1] is 100 to 500 nM; in data set [4], at most 100 nM; in data set [5], at most 100 nM; in [6] it was at most 100 nM; in data set [7] it was 500 to 1000 nM; in data set [8] it was 100 to 500 nM. The GI50 in data set [2] and in data set [3] was 100 to 500 nM throughout. In addition, the “Stability in presence of mouse liver microsomes without cofactor NADPH [% remaining after 50 min]” value in data set [9] is recorded as over 99 % remaining after 50 min.

Regarding `C=CC(=O)N1CCOc2ccc(-c3c(-c4ccc(N5CCN(C)CC5)cc4)[nH]c4nccc(Cl)c34)cc21` [Example 83, 1-(6-(4-chloro-2-(4-(4-methylpiperazin-1-yl)phenyl)-1H-pyrrolo[2,3-b]pyridin-3-yl)-2H-benzo[b][1,4]oxazin-4(3H)-yl)prop-2-en-1-one 2,2,2-trifluoroacetate], the IC50 in data set [1] was at most 100 nM; in [4] it was at most 100 nM; in data set [5] it was at most 100 nM; in data set [6] it was 100 to 500 nM; in data set [7], 1000 to 100000 nM; in data set [8], 1000 to 100000 nM. In addition, the GI50 in [2] and in data set [3] was 100 to 500 nM each time. The “Stability in presence of mouse liver microsomes without cofactor NADPH [% remaining after 50 min]” value in data set [9] is given as over 99 % remaining after 50 min.

Turning to `C=CC(=O)Nc1cc(-c2c(-c3ccc(CN4CCN(C)CC4)cc3)[nH]c3nccc(Cl)c23)ccc1C` [Example 1, N-(5-(4-chloro-2-(4-((4-methylpiperazin-1-yl)methyl)phenyl)-1H-pyrrolo[2,3-b]pyridin-3-yl)-2-methylphenyl)acrylamide 2,2,2-trifluoroacetate], the IC50 in [1] is at most 100 nM; in [4], at most 100 nM; in data set [5], at most 100 nM; in data set [6], at most 100 nM; in [7], 100 to 500 nM; in [8], 100 to 500 nM. For the same compound, the values for the GI50 in [2] and in data set [3] were 100 to 500 nM and at most 100 nM, respectively. Moreover, in [9], the “Stability in presence of mouse liver microsomes without cofactor NADPH [% remaining after 50 min]” value is over 99 % remaining after 50 min.

As to `C=CC(=O)Nc1cc(-c2c(-c3ccc(CN(C)C)cc3)[nH]c3nccc(Cl)c23)ccc1C` [Example 10, N-(5-(4-chloro-2-(4-((dimethylamino)methyl)phenyl)-1H-pyrrolo[2,3-b]pyridin-3-yl)-2-methylphenyl)acrylamide], the IC50 is at most 100 nM in data set [1]; at most 100 nM in [4]; at most 100 nM in data set [5]; at most 100 nM in data set [6]; 100 to 500 nM in data set [7]; 500 to 1000 nM in data set [8]. Further, the GI50 in data set [2] and in [3] was at most 100 nM in each case. The “Stability in presence of mouse liver microsomes without cofactor NADPH [% remaining after 50 min]” value in [9] is over 99 % remaining after 50 min.

Consider `C=CC(=O)N1CCc2ccc(-c3c(-c4ccnc(N5CCN(C)CC5)c4)[nH]c4nccc(Cl)c34)cc21` [Example 59, 1-(6-(4-chloro-2-(2-(4-methylpiperazin-1-yl)pyridin-4-yl)-1H-pyrrolo[2,3-b]pyridin-3-yl)indolin-1-yl)prop-2-en-1-one], for which the IC50 in [1] was at most 100 nM; in data set [4] it was at most 100 nM; in data set [5], at most 100 nM; in [6] it was at most 100 nM; in [7], 100 to 500 nM; in data set [8] it was 100 to 500 nM. Moreover, the GI50 in [2] and in data set [3] was 100 to 500 nM each time. In [9], the “Stability in presence of mouse liver microsomes without cofactor NADPH [% remaining after 50 min]” value was over 99 % remaining after 50 min.

The values are drawn from patent US20220370440A1 (Lead Discovery Center GmbH, priority 2018, published 2022).
